Read-outs that look alike come from different tables or passages of the source.
Legend:
[1] = system: HT-29 human colon cancer cells; details: MTT, Figure S14E
Protocol: Cells were maintained at 37 °C in a humidified atmosphere containing 5% CO2.

[2] = 195Pt NMR reduction kinetics with glutathione; assay type: physicochemical; details: GSH 4:1 excess, DMSO/D2O (4:1), 37 °C, 2, 6, 24 h
Protocol: AsA presents an intracellular concentration of 1 mM, whereas the GSH concentration is 2 mM.[38] This reactivity was monitored by ^195Pt NMR at different times. Thus, by analyzing the different regions where the signals of Pt(II)/Pt(IV) species appear, it is possible to identify and assign the different compounds formed during the reaction. In most cases, the regions where the Pt(II) and Pt(IV) signals appear are separated by more than 3000 ppm.[33]
The reactivity of both complexes toward the reducing agent GSH was also studied using the DMSO/D2O (4:1) mixture. […] In the Pt(II) region, two signals appeared after 24 h at −2728 and −3405 ppm (Figure 2G). The first value is consistent with the cis-PtN2SX fraction,[41],[42] meaning that this species, once reduced to its Pt(II) homologue, coordinates with GSH by displacing a chloride ligand. The second signal corresponds to another Pt(II) moiety with more than one ligand containing sulfur atoms. […]
Each solution was then slowly added to 100 μL of a solution of the corresponding reducing agent (AsA or GSH in an excess of 4:1 against each complex) in D2O at 37 °C. […] Each sample was monitored by ^195Pt NMR at 2, 6, and 24 h.

[3] = system: HCT 116 colon carcinoma subcutaneous tumors; experiment: Subcutaneous HCT 116 tumor model in nude mice; assay type: in vivo, athymic nude Foxn1nu mice
Text: Tumor growth was monitored until tumors in the control group reached the ethically allowed size. […] On the other hand, many types of cancer cause a general increase in lactate dehydrogenase (LDH), and it is considered a nonspecific tumor marker.[57]
To establish the subcutaneous tumor, 2 × 10^6 HCT 116 colon carcinoma cells were resuspended 1:1 in culture media and Matrigel (BD) and injected subcutaneously. Six to eight week old female athymic nude Foxn1nu mice (Harlan Iberica) were used for each point. […] Two therapeutic approaches were compared: acute and chronic (see diagram in Figure 5). Acute treatment was performed (three injections of 10 mg/kg); chronic treatment relied on injections of 1 mg/kg every 3–4 days. […] Tumor growth was monitored by personnel unaware of the group distribution. Experiments were finalized when control animals achieved the maximum tumor size approved by the Ethical Committee. Animals were sacrificed by euthanasia by CO2 inhalation. Selected organs were collected from each animal for histopathological analysis. Samples were fixed in 4% paraformaldehyde for 2 h followed by cold 70% ethanol. Plasma serum was collected to determine hepatic and renal toxicity of treatments using a SPIN200E automatic bioanalyzer (Spinreact).

[4] = system: HIEC6 human healthy intestinal cells; experiment: MTT cell viability assay, HIEC6; assay type: cell-based; details: for IC50: 48 h
Protocol: HIEC6 human healthy intestinal cells and HCT 116 and HT-29 human colon cancer cells were supplied by ATCC. Colon cancer cells were cultured in Dulbecco’s modified Eagle’s medium (DMEM) for HCT 116 and HT-29 supplemented with fetal bovine serum (10%). HIEC6 cells were cultured in Opti-MEM supplemented with fetal bovine serum (4%), HEPES (20 mM), glutamine (10 mM), and epidermal growth factor (10 ng/mL). Cells were maintained at 37 °C in a humidified atmosphere containing 5% CO2. Cells were seeded at 30% confluence in DMEM for HCT 116 and in Opti-MEM for HIEC6; after cell adhesion, HIEC6 cells were cultured in DMEM for 24h before being treated. All cells were treated with the indicated components at concentrations of 0.25–50 μM and incubated for 1–5 days as specified.
The MTT assay relies on a colorimetric reaction based on the capacity of living cells to reduce MTT to formazan and change the color to purple, which is easily measured by colorimetry. This assay estimates the cellular viability after the indicated treatments. Cells were treated with MTT (1:10 in culture medium) and incubated at 37 °C for 3 h for HCT 116 and HT-29 or 6 h for HIEC6. After removal of the medium, the formazan was resuspended in DMSO, transferred to p96 plates, and analyzed by a SpectraFLUOR (Tecan) at 542 nm. In all cases, viability was measured in duplicates of each point in three independent experiments.

HCT 116 cancer cells = details: data not shown
Protocol: Cell were trypsinized, centrifuged at 500g for 5 min, resuspended in PBS, and stained with 7-aminoactinomycin D (7AAD, Santa Cruz Biotechnology), a DNA intercalating dye excluded from viable cells due to membrane impermeability. The 7AAD was excited at 546 nm and analyzed at 656 nm. Only apoptotic and necrotic cells are stained by these dyes. After incubation for 50 min in the dark at 37 °C, the cells were analyzed by flow cytometry (CytoFlex, Beckman Coulter). The percentages of cells stained with or without dyes were analyzed using the CytExpert Software (Beckman Coulter).

SMILES: CC(C)N.CC(C)N.CCO[Si](CCCNC(=O)[O][Pt]([Cl])([Cl])[O]C(=O)NCCC[Si](OCC)(OCC)OCC)(OCC)OCC [Pt(IV)-biSi-2, cis-Dichloro(diisopropylamine)-trans-[3-(triethoxysilyl)propylcarbamate]platinum(IV)]
- Cytotoxic effect on colon cancer cells (HT-29) [1]: strong cytotoxic effect
- Reduction of the Pt(IV) complex by GSH (Pt(IV) signal in 195Pt NMR) [2]: practically disappeared after 24 h
- Tumor volume versus control (PBS) ([3]; i.p., acute and chronic treatments): significantly reduced tumor volume
- Tumor growth compared with cisplatin ([3]; i.p., acute and chronic treatments, Pt concentration one-third that of cisplatin): reduced tumor growth more than cisplatin
- LDH levels (tumor marker) ([3]; serum, versus cisplatin treatment): reduced LDH levels significantly more
- Fold higher concentration needed to reduce nontumorigenic intestinal cell viability by 50% ([4]; IC50 HIEC6 versus IC50 HCT 116): 3.7 fold
- Cell viability, HIEC6 0.5uM 2 days ([4]; MTT, 0.5 uM, 2 days): 92.5 ± 0.9%
- Cell viability, HIEC6 0.5uM 5 days ([4]; MTT, 0.5 uM, 5 days): 84.1 ± 4.7%
- Reduction in viability of healthy cells (HIEC6) ([4]; MTT, 5 μM, 2 days): 60%
- Cell viability, HIEC6 5uM 2 days ([4]; MTT, 5 uM, 2 days, (final complexes, Figure 3B)): 41.2 ± 1.5%
- IC50 ([4]; MTT, Figure 3C and text, read-out: IC50 (μM), HIEC6): 3.47 µM
- IC50 ([4]; MTT, supplementary CSV, read-out: IC50 (uM) HIEC6): 3.5 ± 0.6 µM
- Cell viability, HIEC6 […] 2 days ([4]; MTT, 2 days): 97.8 ± 4.0%
- Cell viability, HIEC6 […] 2 days ([4]; MTT, second (last) column of this head): 98.8 ± 6.1%
- Cytotoxicity by flow cytometry, HCT 116 (HCT 116 cancer cells): stronger effect
